Test results published in patent US9023851B2 (Merck Patent GmbH, priority 2010, dated 2015).

Assays:
Format in all cases: biochemical
[1] = biological target: T1, Src (Homo sapiens, UniProt P12931); experiment: cSrc enzymatic assay (Caliper LifeSciences technology)
T1 construct: purchased Carna Bioscience, Kobe, Japan
Description: (§1) Enzymatic Assays Using the Caliper LifeSciences Technology
(§2) The assays described here are performed on the Caliper Life Sciences LC3000 system This technology provides data on enzyme activity via measurement of the relative amounts of phosphorylated or unphosphorylated fluorescently labelled substrate peptide at the end of an enzymatic reaction. These different states of peptide are resolved by applying a potential difference across the sample. The presence of the charged phosphate group on the product (as opposed to the substrate) causes a different peptide mobility between the two peptides. This is visualized by excitation of the fluorescent label on the substrate and product peptides and represented as peaks within the analysis software.
(§3) In order to measure inhibitor activity of kinase inhibitors on this technology, a TTP Mosquito liquid handling instrument is used to place 0.25 ul of the appropriate concentration of inhibitor in 100% DMSO (for a dose response curve calculation) into each well of a 384-well plate. To this reaction components are added to a final volume of 25 ul. The table below indicates the sequences and concentrations for the assays described in this report. Standard components are 1 mM DTT (Sigma, D0632), 1 mM MgCl2 (Sigma, M1028), 100 mM HEPES pH 7.5 (Calbiochem, 391338), 0.015% Brij-35 (Sigma, B4184).
(§4) The reaction is incubated for 90 min at 25 C, and then stopped by the addition of 70 ul of Stop buffer (100 mM HEPES pH 7.5, 0.015% Brij-35, 10 mM EDTA (Sigma, E7889)).
(§5) The plate is read on a Caliper LC 3000 in an Off-Chip mobility shift assay format, on a 12-sipper chip. Unphosphorylated substrate and phosphorylated product peptide resolve as separate peaks allowing direct measurement of percentage of conversion of substrate to product. The percent conversion can be plotted against concentration of inhibitor to produce a sigmoidal dose response curve, from which an IC50 can be calculated using GeneData Condoseo or a similar product. Cellular activity assays

[2] = biological target: T2, ZAP-70 (Homo sapiens, UniProt P43403); experiment: Zap70 enzymatic assay (Caliper LifeSciences technology)
T2 construct: purchased BPS Bioscience, CA, USA
T2 sequence (P43403 1-619): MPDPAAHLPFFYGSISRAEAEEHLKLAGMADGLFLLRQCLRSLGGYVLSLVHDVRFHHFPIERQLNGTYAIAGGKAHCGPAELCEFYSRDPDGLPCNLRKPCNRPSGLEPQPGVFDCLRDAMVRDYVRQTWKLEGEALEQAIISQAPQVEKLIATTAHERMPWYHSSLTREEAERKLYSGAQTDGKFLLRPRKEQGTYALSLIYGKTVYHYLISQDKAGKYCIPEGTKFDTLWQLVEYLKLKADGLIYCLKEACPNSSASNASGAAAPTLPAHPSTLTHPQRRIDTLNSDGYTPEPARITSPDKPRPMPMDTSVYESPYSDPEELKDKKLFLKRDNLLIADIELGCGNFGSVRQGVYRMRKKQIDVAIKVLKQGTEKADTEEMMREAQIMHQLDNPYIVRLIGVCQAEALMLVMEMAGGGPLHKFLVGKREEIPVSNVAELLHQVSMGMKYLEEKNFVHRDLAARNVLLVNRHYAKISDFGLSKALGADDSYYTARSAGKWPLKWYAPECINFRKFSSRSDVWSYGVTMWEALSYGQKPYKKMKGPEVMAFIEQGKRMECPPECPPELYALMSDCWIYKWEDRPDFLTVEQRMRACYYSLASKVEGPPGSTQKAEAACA
Description: as §1, §2, §3, §4, §5

[3] = biological target: T3, KDR (Homo sapiens, UniProt P35968); experiment: KDR enzymatic assay (Caliper LifeSciences technology)
T3 construct: purchased BPS Bioscience, CA, USA
T3 sequence (P35968 20-1356): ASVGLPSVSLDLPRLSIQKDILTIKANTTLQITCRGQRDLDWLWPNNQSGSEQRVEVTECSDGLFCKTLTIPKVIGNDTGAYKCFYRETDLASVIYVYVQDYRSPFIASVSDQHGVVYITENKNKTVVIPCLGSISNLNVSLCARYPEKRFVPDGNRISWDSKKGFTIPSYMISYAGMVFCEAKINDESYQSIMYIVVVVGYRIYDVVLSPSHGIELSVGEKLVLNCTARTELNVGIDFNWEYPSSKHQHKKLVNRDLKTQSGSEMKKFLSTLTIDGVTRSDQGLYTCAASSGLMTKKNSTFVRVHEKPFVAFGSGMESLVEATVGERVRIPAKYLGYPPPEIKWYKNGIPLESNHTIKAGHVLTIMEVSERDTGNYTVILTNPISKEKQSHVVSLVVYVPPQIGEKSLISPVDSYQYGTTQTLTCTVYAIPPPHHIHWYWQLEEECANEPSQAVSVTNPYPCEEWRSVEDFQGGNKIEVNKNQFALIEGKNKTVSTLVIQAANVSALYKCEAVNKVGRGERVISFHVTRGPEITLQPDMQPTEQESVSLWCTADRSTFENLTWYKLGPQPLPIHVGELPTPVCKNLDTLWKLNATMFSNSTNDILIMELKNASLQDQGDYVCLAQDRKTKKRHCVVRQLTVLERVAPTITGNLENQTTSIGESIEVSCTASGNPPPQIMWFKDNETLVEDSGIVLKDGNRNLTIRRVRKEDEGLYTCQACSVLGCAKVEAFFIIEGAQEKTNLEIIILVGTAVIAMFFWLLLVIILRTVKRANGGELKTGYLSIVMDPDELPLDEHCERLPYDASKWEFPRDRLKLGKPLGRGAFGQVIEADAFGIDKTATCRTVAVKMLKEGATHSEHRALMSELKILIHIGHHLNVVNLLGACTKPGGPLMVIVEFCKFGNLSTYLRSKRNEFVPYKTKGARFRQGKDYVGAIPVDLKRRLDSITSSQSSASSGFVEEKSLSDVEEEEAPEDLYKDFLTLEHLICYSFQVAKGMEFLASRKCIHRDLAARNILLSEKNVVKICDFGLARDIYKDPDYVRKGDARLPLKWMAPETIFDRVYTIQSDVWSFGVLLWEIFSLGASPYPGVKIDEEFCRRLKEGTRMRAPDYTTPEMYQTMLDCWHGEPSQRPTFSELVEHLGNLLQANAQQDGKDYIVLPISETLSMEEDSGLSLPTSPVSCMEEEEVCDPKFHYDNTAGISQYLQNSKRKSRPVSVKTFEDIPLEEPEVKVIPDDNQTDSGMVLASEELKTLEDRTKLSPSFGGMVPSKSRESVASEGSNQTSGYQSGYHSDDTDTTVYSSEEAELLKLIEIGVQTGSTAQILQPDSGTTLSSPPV
Description: as §1, §2, §3, §4, §5

[4] = biological target: T4, Syk (Homo sapiens, UniProt P43405); experiment: Syk enzyme assay (flash plate / Caliper mobility shift)
T4 construct: purchased BPS Bioscience, CA, USA
Description: The kinase assay is performed either as 384-well Flashplate assay (for e.g. Topcount measurement) or as 384-well Image-Flashplate assay (for LEADseeker measurement).
2.5 nM SYK, 400 nM Biotin-Aha-Aha-[…] and 10 μM ATP (spiked with 0.3 μCi 33P-ATP/well) are incubated in a total volume of 50 μl (60 mM Hepes, 10 mM MgCl2, 1.2 mM Dithiothreitol, 0.02% Brij35, 0.1% BSA, pH 7.5) with or without test compound for 1 hours at 30° C. The reaction is stopped with 25 μl 200 mM EDTA. After 30 Min at 30° C. the liquid is removed and each well washed thrice with 100 μl 0.9% sodium chloride solution. Non-specific reaction is determined in presence of 0.1 μM Staurosporine. Radioactivity is measured with Topcount (when using Flashplates) or with LEADseeker (when using Image-Flashplates) respectively. Results (e.g. IC50-values) are calculated with program tools provided by the IT-department (e.g. Symyx Assay Explorer, Genedata Screener).
as §1, §2, §3, §4, §5

T1 sequence (P12931 whole entry): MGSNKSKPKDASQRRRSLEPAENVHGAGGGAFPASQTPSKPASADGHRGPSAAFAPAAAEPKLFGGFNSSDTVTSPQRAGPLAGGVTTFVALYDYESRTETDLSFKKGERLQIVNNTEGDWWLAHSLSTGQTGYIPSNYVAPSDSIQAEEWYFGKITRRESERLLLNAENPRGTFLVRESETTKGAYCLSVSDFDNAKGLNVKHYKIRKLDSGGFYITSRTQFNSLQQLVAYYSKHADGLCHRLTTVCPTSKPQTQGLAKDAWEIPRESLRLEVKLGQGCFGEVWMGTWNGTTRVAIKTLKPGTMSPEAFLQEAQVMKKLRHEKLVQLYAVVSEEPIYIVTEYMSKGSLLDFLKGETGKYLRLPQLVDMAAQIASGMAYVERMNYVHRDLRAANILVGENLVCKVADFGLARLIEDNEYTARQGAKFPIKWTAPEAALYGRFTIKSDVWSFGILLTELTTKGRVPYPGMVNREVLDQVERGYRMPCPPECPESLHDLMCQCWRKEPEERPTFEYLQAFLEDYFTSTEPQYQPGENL

Structure (SMILES): COc1cc(Nc2nc3c(-c4cnn(C)c4)nccn3n2)cc(OC)c1 [Example C300, (3,5-Dimethoxy-phenyl)-[8-(1-methyl-1H-pyrazol-4-yl)-[1,2,4]triazolo[1,5-a]pyrazin-2-yl]-amine]
- IC50 [1]: 0.3 to 3 µM
- IC50 [2]: 3 to 50 µM
- IC50 [3]: 0.3 to 3 µM
- IC50 [4]: < 0.3 µM

Structure (SMILES): COc1cc(Nc2nc3c(-c4cn[nH]c4)nccn3n2)cc(OC)c1 [Example C301, (3,5-Dimethoxy-phenyl)-[8-(1H-pyrazol-4-yl)-[1,2,4]triazolo[1,5-a]pyrazin-2-yl]-amine]
- IC50 [1]: 0.3 to 3 µM
- IC50 [2]: 3 to 50 µM
- IC50 [3]: 0.3 to 3 µM
- IC50 [4]: < 0.3 µM

Structure (SMILES): Cc1cccc(Nc2nc3c(NCCCN(C)C)nccn3n2)c1 [Example C46, N^8-(3-Dimethylamino-propyl)-N^2-m-tolyl-[1,2,4]triazolo[1,5-a]pyrazine-2,8-diamine]
- IC50 [1]: 3 to 50 µM
- IC50 [3]: 3 to 50 µM
- IC50 [4]: 3 to 50 µM

Structure (SMILES): COCC(O)Cn1cc(-c2nccn3nc(Nc4ccc(N5CCOCC5)cc4)nc23)cn1 (stereo not shown) [Example D6, 1-Methoxy-3-{4-[2-(4-morpholin-4-yl-phenylamino)-[1,2,4]triazolo[1,5-a]pyrazin-8-yl]-pyrazol-1-yl}-propan-2-ol]
- IC50 [1]: 0.3 to 3 µM
- IC50 [2]: 3 to 50 µM
- IC50 [3]: 0.3 to 3 µM
- IC50 [4]: 0.3 to 3 µM

Structure (SMILES): Cc1cc(C)cc(Nc2nc3c(NCCCN4CCN(C)CC4)nccn3n2)c1 [Example C36, N^2-(3,5-Dimethyl-phenyl)-N^8-[3-(4-methyl-piperazin-1-yl)-propyl]-[1,2,4]triazolo[1,5-a]pyrazine-2,8-diamine]
- IC50 [1]: 3 to 50 µM
- IC50 [2]: 3 to 50 µM
- IC50 [3]: 3 to 50 µM
- IC50 [4]: 3 to 50 µM

Structure (SMILES): COc1cc(Nc2nc3c(-c4ccc(C(C)(C)C#N)cc4)nccn3n2)cc(OC)c1 [Example C256, 2-{4-[2-(3,5-Dimethoxy-phenylamino)-[1,2,4]triazolo[1,5-a]pyrazin-8-yl]-phenyl}-2-methyl-propionitrile]
- IC50 [1]: 0.3 to 3 µM
- IC50 [2]: 3 to 50 µM
- IC50 [3]: 0.3 to 3 µM
- IC50 [4]: < 0.3 µM

Structure (SMILES): COCCCNc1nccn2nc(Nc3cc(OC)cc(OC)c3)nc12 [Example C40, N^2-(3,5-Dimethoxy-phenyl)-N^8-(3-methoxy-propyl)-[1,2,4]triazolo[1,5-a]pyrazine-2,8-diamine]
- IC50 [1]: 3 to 50 µM
- IC50 [3]: 3 to 50 µM
- IC50 [4]: 3 to 50 µM

Structure (SMILES): COc1cc(Nc2nc3c(-c4cccc(CN)c4)nccn3n2)cc(OC)c1 [Example C114, [8-(3-Aminomethyl-phenyl)-[1,2,4]triazolo[1,5-a]pyrazin-2-yl]-(3,5-dimethoxy-phenyl)-amine]
- IC50 [1]: 0.3 to 3 µM
- IC50 [3]: 0.3 to 3 µM
- IC50 [4]: < 0.3 µM

Structure (SMILES): CN(C)CCCNc1nccn2nc(Nc3cccc(C(F)(F)F)c3)nc12 [Example C33, N^8-(3-Dimethylamino-propyl)-N^2-(3-trifluoromethyl-phenyl)-[1,2,4]triazolo[1,5-a]pyrazine-2,8-diamine]
- IC50 [1]: 3 to 50 µM
- IC50 [3]: 3 to 50 µM
- IC50 [4]: 3 to 50 µM

Structure (SMILES): COc1cc(Nc2nc3c(NCCCN(C)C)nccn3n2)cc(OC)c1 [Example C38, N^2-(3,5-Dimethoxy-phenyl)-N^8-(3-dimethylamino-propyl)-[1,2,4]triazolo[1,5-a]pyrazine-2,8-diamine]
- IC50 [1]: 3 to 50 µM
- IC50 [3]: 3 to 50 µM
- IC50 [4]: 3 to 50 µM

Structure (SMILES): COc1cc(Nc2nc3c(Cl)nccn3n2)cc(OC)c1 [Example B2, 8-Chloro-[1,2,4]triazolo[1,5-a]pyrazin-2-yl-(3,5-dimethoxy-phenyl)-amine]
- IC50 [1]: 3 to 50 µM
- IC50 [4]: 3 to 50 µM

Structure (SMILES): COc1cc(Nc2nc3c(-c4cccc(C(N)=O)c4)nccn3n2)cc(OC)c1 [Example C276, 3-[2-(3,5-Dimethoxy-phenylamino)-[1,2,4]triazolo[1,5-a]pyrazin-8-yl]-benzamide]
- IC50 [1]: 0.3 to 3 µM
- IC50 [3]: < 0.3 µM
- IC50 [4]: < 0.3 µM

Structure (SMILES): FC(F)(F)c1cccc(Nc2nc3c(-c4cccnc4)nccn3n2)c1 [Example C20, (8-Pyridin-3-yl-[1,2,4]triazolo[1,5-a]pyrazin-2-yl)-(3-trifluoromethyl-phenyl)-amine]
- IC50 [1]: 3 to 50 µM
- IC50 [3]: 3 to 50 µM
- IC50 [4]: 0.3 to 3 µM

Structure (SMILES): COc1cc(Nc2nc3c(NCCCN4CCN(C)CC4)nccn3n2)cc(OC)c1 [Example C30, N^2-(3,5-Dimethoxy-phenyl)-N^8-[3-(4-methyl-piperazin-1-yl)-propyl]-[1,2,4]triazolo[1,5-a]pyrazine-2,8-diamine]
- IC50 [1]: 3 to 50 µM
- IC50 [3]: 3 to 50 µM
- IC50 [4]: 3 to 50 µM

Structure (SMILES): c1ccc(Nc2nc3c(-c4cccnc4)nccn3n2)cc1 [Example C22, Phenyl-(8-pyridin-3-yl-[1,2,4]triazolo[1,5-a]pyrazin-2-yl)-amine]
- IC50 [1]: 3 to 50 µM
- IC50 [3]: 0.3 to 3 µM
- IC50 [4]: 3 to 50 µM

Structure (SMILES): NC(=O)c1cccc(-c2nccn3nc(Nc4ccc(N5CCOCC5)cc4)nc23)c1 [Example C277, 3-[2-(4-Morpholin-4-yl-phenylamino)-[1,2,4]triazolo[1,5-a]pyrazin-8-yl]-benzamide]
- IC50 [1]: 0.3 to 3 µM
- IC50 [3]: < 0.3 µM
- IC50 [4]: < 0.3 µM

Structure (SMILES): COc1cc(Nc2nc3c(NCCCN4CCOCC4)nccn3n2)cc(OC)c1 [Example C39, N^2-(3,5-Dimethoxy-phenyl)-N^8-(3-morpholin-4-yl-propyl)-[1,2,4]triazolo[1,5-a]pyrazine-2,8-diamine]
- IC50 [1]: 3 to 50 µM
- IC50 [3]: 3 to 50 µM
- IC50 [4]: 3 to 50 µM

Structure (SMILES): COc1cc(Nc2nc3c(NCCN)nccn3n2)cc(OC)c1 [Example C29, N^8-(2-Amino-ethyl)-N^2-(3,5-dimethoxy-phenyl)-[1,2,4]triazolo[1,5-a]pyrazine-2,8-diamine]
- IC50 [1]: 3 to 50 µM
- IC50 [3]: 3 to 50 µM
- IC50 [4]: 3 to 50 µM

Structure (SMILES): Cc1cc(C)cc(Nc2nc3c(-c4cccnc4)nccn3n2)c1 [Example C4, (3,5-Dimethyl-phenyl)-(8-pyridin-3-yl-[1,2,4]triazolo[1,5-a]pyrazin-2-yl)-amine]
- IC50 [1]: 0.3 to 3 µM
- IC50 [3]: 0.3 to 3 µM
- IC50 [4]: 0.3 to 3 µM

Structure (SMILES): Cc1cc(C)cc(Nc2nc3c(NCCCN4CCOCC4)nccn3n2)c1 [Example C28, N^2-(3,5-Dimethyl-phenyl)-N^8-(3-morpholin-4-yl-propyl)-[1,2,4]triazolo[1,5-a]pyrazine-2,8-diamine]
- IC50 [1]: 3 to 50 µM
- IC50 [3]: 0.3 to 3 µM
- IC50 [4]: 3 to 50 µM

Structure (SMILES): Cc1cc(C)cc(Nc2nc3c(-c4ccc(N5CCOCC5)cc4)nccn3n2)c1 [Example C11, (3,5-Dimethyl-phenyl)-[8-(4-morpholin-4-yl-phenyl)-[1,2,4]triazolo[1,5-a]pyrazin-2-yl]-amine]
- IC50 [1]: 3 to 50 µM
- IC50 [3]: 3 to 50 µM
- IC50 [4]: 3 to 50 µM

Structure (SMILES): COc1cc(Nc2nc3c(-c4ccc5cccnc5c4)nccn3n2)cc(OC)c1 [Example C264, (3,5-Dimethoxy-phenyl)-(8-quinolin-7-yl-[1,2,4]triazolo[1,5-a]pyrazin-2-yl)-amine]
- IC50 [1]: 0.3 to 3 µM
- IC50 [2]: 3 to 50 µM
- IC50 [4]: < 0.3 µM

Structure (SMILES): Cc1cccc(Nc2nc3c(-c4ccccc4)nccn3n2)c1 [Example C1, (8-Phenyl-[1,2,4]triazolo[1,5-a]pyrazin-2-yl)-m-tolyl-amine]
- IC50 [2]: 3 to 50 µM
- IC50 [3]: < 0.3 µM
- IC50 [4]: 0.3 to 3 µM
